# Results as given in patent US9029322B2, “Compounds for enhancing p21 expression and methods of use thereof” (Cornell University, priority 2007, dated 2015).
# Tests used:
# [1] = test system: contusion injury at the level of T-8; experiment: Spinal cord contusion injury, single injection after injury; assay type: in vivo, rats
# [2] = test system: arylhydrocarbon receptor (AHR); experiment: Microarray gene analysis on spinal cord tissue RNA after intraperitoneal dosing; assay type: in vivo, rats
# Protocol: Based on available dosing data, rats were dosed with 1, 5, 10, 15 or 30 mg/kg ciclopirox (intraperiotoneal; 3 animals per concentration). Spinal cord, liver and skeletal muscle tissue was harvested 6-hours after drug delivery. Real-time rt-PCR was performed on RNA extracted from tissues to examine the expression of p21waf1/cip1, arginase-1, and VEGF in order to determine what might be the most efficacious dose.
# Microarray gene analysis was also performed on spinal cord tissue RNA to determine gene expression changes that correlate with treatment and dose in an unbiased manner.
# [3] = test system: mouse or human p21 promoter; experiment: p21-luciferase reporter screen in stably transfected HT22 cells; assay type: cell-based; conditions: HT22 lines stably expressing p21-luciferase; positive control
# Protocol: To identify novel activators of p21, fragments of the mouse or human p21 promoter were subcloned into the pGL3 basic promoter-reporter construct (see promoter sequence information). The resultant p21-luciferase reporter plasmids were each then stably transfected into a mouse hippocampal cell line, HT22. […] Drugs were added to cells stably expressing p21-luciferase in a 96 well format. The HDAC inhibitor trichostatin A was used as a positive control. After 12 hours of drug treatment, the cells were lysed and luciferase activity was measured using a desktop luminometer. Cell viability was monitored in parallel, so that agents that induce toxicity can quickly be eliminated. Secondary screens including real time PCR or Western blots of p21 were monitored in primary neurons.
Structure (SMILES),protection (lesion volume) ([1]; single 30 mg/kg intraperitoneal injection 30 minutes after contusion injury at T-8),effect on behavior (functional improvement) ([1]; single injection after injury),"AHR gene expression change in spinal cord (microarray) ([2]; rats, 1, 5, 10, 15 or 30 mg/kg intraperitoneal, tissue harvested 6 hours after drug delivery)","induction of transcription in the spinal cord ([2]; rats, intraperitoneal, in vivo)","blood brain barrier penetration ([2]; rats, intraperitoneal, inferred from spinal cord gene expression changes)",p21-luciferase response [3]
Cc1cc(C2CCCCC2)n(O)c(=O)c1 [ciclopirox],significant protection (reduced lesion volume),little functional improvement,dose-dependent ciclopirox-regulated gene,could induce transcription in the spinal cord,could penetrate the blood brain barrier,–
CC(/C=C/C(=O)NO)=C\[C@@H](C)C(=O)c1ccc(N(C)C)cc1 [trichostatin A],–,–,–,–,–,predicted increases in p21-luciferase
